Assay results published in the kinase profiling compilation of Christmann-Franck et al. (2016).
pIC50: −log10 of the molar value.

Assays:
Assay in all cases: radiometric filter-binding kinase assay
[1] = biological target: PAK4 (human) (UniProt O96013)
[2] = biological target: MAP2K1 (human) (UniProt Q02750)
[3] = biological target: DCLK2 (human) (UniProt Q8N568)
[4] = biological target: EPHB3 (human) (UniProt P54753)
[5] = biological target: PIM2 (human) (UniProt Q9P1W9)
[6] = biological target: HIPK1 (human) (UniProt Q86Z02)
[7] = biological target: STK3 (human) (UniProt Q13188)
[8] = system: SGK1 (human), O00141 [S422D]
Sequence of SGK1 (human), O00141 [S422D] (O00141 whole entry S422D, looked up): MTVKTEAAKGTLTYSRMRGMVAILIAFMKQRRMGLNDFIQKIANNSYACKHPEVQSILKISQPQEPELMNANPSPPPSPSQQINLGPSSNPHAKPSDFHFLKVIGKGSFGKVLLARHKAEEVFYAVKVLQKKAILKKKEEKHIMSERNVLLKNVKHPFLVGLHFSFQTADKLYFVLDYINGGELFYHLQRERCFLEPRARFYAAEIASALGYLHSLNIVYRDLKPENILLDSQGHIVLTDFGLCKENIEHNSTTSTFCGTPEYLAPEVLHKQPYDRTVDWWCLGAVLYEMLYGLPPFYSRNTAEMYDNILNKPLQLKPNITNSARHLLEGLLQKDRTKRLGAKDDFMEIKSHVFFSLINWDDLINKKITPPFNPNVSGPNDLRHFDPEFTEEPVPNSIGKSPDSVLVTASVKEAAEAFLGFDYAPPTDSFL

[9] = system: LCK (mouse); details: accession and sequence are those of the human protein
[10] = biological target: MAPK1 (human) (UniProt P28482)
[11] = biological target: PAK7 (human) (UniProt Q9P286)
[12] = biological target: CLK2 (human) (UniProt P49760)
[13] = biological target: AURKB (human) (UniProt Q96GD4)
Sequence of AURKB (human) (Q96GD4 whole entry, looked up): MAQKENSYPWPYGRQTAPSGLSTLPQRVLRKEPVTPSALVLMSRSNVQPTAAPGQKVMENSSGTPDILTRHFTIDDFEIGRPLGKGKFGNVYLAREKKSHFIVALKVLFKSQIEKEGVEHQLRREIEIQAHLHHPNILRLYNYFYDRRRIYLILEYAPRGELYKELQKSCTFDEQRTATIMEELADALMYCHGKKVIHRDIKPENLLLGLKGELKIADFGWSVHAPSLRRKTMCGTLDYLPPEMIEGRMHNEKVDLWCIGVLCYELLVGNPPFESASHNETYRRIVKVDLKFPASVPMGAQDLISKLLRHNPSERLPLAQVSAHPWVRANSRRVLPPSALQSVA

[14] = biological target: MINK1 (human) (UniProt Q8N4C8)
Sequence of MINK1 (human) (Q8N4C8 whole entry, looked up): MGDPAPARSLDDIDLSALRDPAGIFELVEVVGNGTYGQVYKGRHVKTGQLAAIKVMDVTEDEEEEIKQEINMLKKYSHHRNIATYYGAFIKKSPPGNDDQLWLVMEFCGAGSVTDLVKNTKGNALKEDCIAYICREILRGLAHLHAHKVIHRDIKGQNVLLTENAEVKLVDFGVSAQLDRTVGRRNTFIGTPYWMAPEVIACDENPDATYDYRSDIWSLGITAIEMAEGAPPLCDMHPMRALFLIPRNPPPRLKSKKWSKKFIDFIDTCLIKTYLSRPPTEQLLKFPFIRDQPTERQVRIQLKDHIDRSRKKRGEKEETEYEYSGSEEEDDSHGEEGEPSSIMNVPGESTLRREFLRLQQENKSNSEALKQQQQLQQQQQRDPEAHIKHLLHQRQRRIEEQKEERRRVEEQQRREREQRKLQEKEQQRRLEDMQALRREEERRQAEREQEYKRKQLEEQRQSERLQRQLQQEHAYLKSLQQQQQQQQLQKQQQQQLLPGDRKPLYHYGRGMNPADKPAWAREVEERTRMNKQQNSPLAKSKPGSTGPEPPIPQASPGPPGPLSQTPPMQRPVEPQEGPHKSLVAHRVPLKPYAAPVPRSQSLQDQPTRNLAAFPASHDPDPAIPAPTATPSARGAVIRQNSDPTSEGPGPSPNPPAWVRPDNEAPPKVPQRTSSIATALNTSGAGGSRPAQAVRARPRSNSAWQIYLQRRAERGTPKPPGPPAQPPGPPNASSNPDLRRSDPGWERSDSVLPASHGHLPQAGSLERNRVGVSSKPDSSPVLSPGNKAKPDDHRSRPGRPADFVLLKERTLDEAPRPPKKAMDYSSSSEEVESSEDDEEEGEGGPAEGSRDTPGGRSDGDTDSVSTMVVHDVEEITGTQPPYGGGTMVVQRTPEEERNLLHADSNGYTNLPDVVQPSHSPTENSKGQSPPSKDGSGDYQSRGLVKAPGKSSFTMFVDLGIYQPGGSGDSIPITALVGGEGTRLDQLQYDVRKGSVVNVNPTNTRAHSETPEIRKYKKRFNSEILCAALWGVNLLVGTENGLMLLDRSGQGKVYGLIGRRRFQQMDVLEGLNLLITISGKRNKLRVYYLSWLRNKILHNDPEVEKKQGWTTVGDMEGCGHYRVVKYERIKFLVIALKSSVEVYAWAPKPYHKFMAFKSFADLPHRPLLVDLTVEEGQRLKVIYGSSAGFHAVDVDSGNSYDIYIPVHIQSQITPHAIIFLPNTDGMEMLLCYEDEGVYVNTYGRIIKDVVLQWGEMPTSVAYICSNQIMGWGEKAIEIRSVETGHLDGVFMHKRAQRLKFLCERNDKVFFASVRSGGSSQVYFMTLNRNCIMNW

[15] = biological target: MARK2 (human) (UniProt Q7KZI7)
[16] = biological target: RIPK2 (human) (UniProt O43353)
[17] = biological target: MARK3 (human) (UniProt P27448)
[18] = biological target: MAPKAPK5 (human) (UniProt Q8IW41)
[19] = biological target: IGF1R (human) (UniProt P08069)
[20] = biological target: CHEK1 (human) (UniProt O14757)
[21] = system: RPS6KB1 (human), P23443 [T412E]
[22] = system: AKT2 (human), P31751 [S474D]
[23] = biological target: CaMK1 (human) (UniProt Q14012)
Sequence of CaMK1 (human) (Q14012 whole entry, looked up): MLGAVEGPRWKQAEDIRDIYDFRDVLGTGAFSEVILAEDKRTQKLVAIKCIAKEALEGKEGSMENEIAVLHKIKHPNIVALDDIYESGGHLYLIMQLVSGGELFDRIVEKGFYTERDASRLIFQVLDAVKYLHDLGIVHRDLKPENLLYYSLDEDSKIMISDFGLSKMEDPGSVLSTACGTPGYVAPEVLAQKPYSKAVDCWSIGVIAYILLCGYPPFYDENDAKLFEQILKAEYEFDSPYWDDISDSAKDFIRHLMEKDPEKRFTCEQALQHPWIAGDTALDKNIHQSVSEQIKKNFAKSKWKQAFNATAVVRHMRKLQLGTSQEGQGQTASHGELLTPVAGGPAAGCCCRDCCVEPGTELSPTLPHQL

[24] = biological target: PRKCA (human) (UniProt P17252)
[25] = biological target: TTK (human) (UniProt P33981)
Sequence of TTK (human) (P33981 whole entry, looked up): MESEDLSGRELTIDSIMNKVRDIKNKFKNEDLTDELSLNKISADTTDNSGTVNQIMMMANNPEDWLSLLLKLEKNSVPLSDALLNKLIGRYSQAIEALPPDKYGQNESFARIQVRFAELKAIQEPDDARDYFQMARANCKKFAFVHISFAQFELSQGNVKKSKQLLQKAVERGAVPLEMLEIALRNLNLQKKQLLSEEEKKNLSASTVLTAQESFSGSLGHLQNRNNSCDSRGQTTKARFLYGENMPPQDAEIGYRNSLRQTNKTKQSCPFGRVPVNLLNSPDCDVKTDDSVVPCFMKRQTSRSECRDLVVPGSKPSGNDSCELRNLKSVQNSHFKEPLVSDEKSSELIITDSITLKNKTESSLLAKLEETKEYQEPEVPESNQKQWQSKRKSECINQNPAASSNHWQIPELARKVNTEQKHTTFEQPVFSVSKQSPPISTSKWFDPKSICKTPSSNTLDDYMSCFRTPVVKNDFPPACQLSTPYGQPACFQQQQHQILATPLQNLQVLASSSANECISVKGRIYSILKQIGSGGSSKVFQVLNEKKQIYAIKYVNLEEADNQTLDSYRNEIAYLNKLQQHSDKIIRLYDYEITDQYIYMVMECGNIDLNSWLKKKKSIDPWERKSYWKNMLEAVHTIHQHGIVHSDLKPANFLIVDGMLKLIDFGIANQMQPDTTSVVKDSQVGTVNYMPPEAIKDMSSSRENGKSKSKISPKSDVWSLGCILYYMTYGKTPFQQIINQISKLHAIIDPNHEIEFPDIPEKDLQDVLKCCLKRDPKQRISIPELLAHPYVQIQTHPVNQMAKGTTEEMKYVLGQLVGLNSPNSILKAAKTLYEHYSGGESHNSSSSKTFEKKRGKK

[26] = biological target: RPS6KA3 KD1 KD2 (human) (UniProt P51812)
[27] = biological target: MAPKAPK3 (human) (UniProt Q16644)
[28] = biological target: EPHB4 (human) (UniProt P54760)
[29] = biological target: MAP3K9 (human) (UniProt P80192)
Sequence of MAP3K9 (human) (P80192 whole entry, looked up): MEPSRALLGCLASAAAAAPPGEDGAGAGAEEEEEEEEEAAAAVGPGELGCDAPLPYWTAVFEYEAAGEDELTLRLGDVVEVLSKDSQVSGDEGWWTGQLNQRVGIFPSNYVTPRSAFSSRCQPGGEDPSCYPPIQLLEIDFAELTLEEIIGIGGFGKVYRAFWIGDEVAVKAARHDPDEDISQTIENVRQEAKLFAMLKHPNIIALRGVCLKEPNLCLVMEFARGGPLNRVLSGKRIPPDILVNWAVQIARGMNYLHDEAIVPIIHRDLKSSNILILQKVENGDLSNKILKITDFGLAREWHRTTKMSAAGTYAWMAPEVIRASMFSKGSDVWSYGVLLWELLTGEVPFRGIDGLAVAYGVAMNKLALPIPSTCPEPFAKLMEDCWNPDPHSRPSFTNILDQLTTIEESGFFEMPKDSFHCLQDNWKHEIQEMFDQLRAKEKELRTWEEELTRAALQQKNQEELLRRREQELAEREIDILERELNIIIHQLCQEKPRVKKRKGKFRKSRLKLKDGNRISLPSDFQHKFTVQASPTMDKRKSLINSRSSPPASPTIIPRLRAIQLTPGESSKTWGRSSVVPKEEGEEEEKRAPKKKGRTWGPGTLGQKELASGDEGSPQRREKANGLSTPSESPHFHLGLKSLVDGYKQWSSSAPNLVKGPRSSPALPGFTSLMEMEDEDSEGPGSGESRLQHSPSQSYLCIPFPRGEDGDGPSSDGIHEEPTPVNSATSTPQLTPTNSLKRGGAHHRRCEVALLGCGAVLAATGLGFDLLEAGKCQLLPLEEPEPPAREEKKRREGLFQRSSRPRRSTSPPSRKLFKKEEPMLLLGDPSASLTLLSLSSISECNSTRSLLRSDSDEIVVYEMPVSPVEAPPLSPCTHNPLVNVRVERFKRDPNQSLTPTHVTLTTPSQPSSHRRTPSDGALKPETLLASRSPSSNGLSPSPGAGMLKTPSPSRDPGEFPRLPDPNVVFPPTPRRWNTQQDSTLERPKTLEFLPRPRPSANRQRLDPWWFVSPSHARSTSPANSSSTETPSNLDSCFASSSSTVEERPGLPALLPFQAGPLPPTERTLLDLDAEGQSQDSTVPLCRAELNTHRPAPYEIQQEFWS

[30] = biological target: GSK3B (human) (UniProt P49841)
Sequence of GSK3B (human) (P49841 whole entry, looked up): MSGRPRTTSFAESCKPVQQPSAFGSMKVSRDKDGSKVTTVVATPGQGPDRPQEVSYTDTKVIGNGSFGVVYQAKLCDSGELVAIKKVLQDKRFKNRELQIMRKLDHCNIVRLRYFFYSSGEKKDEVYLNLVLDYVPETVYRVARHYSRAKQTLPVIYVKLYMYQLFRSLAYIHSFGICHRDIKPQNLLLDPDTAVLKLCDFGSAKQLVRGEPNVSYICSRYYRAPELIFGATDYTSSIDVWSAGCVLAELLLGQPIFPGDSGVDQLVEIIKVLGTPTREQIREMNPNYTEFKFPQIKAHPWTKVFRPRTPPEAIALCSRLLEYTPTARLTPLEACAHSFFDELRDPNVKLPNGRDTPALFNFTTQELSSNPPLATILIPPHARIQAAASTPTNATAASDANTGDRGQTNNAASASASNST

[31] = biological target: MAPK13 (human) (UniProt O15264)
[32] = biological target: EPHB2 (human) (UniProt P29323)
[33] = biological target: IRAK4 (human) (UniProt Q9NWZ3)
[34] = biological target: IKBKE (human) (UniProt Q14164)

`COc1cc(C(=O)N2CCC(N3CCN(C)CC3)CC2)ccc1Nc1ncc2c(n1)N(C)c1ccccc1C(=O)N2C` was tested, and the residual activity ([1]; compound 1.0 µM) was 94%, the residual activity ([1]; compound 10.0 µM) was 108% and the residual activity ([2]; compound 1.0 µM) was 94%. It also gave a residual activity ([2]; compound 10.0 µM) of 86%, a pIC50 [3] of 6.68 and a residual activity ([4]; compound 1.0 µM) of 71%. The residual activity ([4]; compound 10.0 µM) was 71%, the residual activity ([5]; compound 1.0 µM) was 87% and the residual activity ([5]; compound 10.0 µM) was 97%. The residual activity ([6]; compound 1.0 µM) was 94%, the residual activity ([6]; compound 10.0 µM) was 104% and the residual activity ([7]; compound 1.0 µM) was 100%. The residual activity ([7]; compound 10.0 µM) was 98%, the residual activity ([8]; compound 1.0 µM) was 75% and the residual activity ([8]; compound 10.0 µM) was 89%. It also gave a residual activity ([9]; compound 1.0 µM) of 106%, a residual activity ([9]; compound 10.0 µM) of 99% and a residual activity ([10]; compound 1.0 µM) of 83%. It also gave a residual activity ([10]; compound 10.0 µM) of 85%, a residual activity ([11]; compound 1.0 µM) of 84% and a residual activity ([11]; compound 10.0 µM) of 89%. The residual activity ([12]; compound 1.0 µM) was 76%, the residual activity ([12]; compound 10.0 µM) was 69% and the pIC50 [13] was 5.96. For the same compound, the residual activity ([13]; compound 1.0 µM) was 64%, the residual activity ([13]; compound 10.0 µM) was 28% and the residual activity ([14]; compound 1.0 µM) was 99%. The residual activity ([14]; compound 10.0 µM) was 108%, the residual activity ([15]; compound 1.0 µM) was 62% and the residual activity ([15]; compound 10.0 µM) was 72%. For the same compound, the residual activity ([16]; compound 1.0 µM) was 103%, the residual activity ([16]; compound 10.0 µM) was 101% and the residual activity ([17]; compound 1.0 µM) was 100%. The residual activity ([17]; compound 10.0 µM) was 105%, the residual activity ([18]; compound 1.0 µM) was 102% and the residual activity ([18]; compound 10.0 µM) was 107%. The residual activity ([19]; compound 1.0 µM) was 107%, the residual activity ([19]; compound 10.0 µM) was 90% and the residual activity ([20]; compound 1.0 µM) was 82%. The residual activity ([20]; compound 10.0 µM) was 96%, the residual activity ([21]; compound 1.0 µM) was 86% and the residual activity ([21]; compound 10.0 µM) was 81%. The residual activity ([22]; compound 1.0 µM) was 93%, the residual activity ([22]; compound 10.0 µM) was 79% and the residual activity ([23]; compound 1.0 µM) was 75%. For the same compound, the residual activity ([23]; compound 10.0 µM) was 43%, the residual activity ([24]; compound 1.0 µM) was 95% and the residual activity ([24]; compound 10.0 µM) was 97%. For the same compound, the residual activity ([25]; compound 1.0 µM) was 84%, the residual activity ([25]; compound 10.0 µM) was 91% and the residual activity ([26]; compound 1.0 µM) was 84%. The residual activity ([26]; compound 10.0 µM) was 59%, the residual activity ([27]; compound 1.0 µM) was 85% and the residual activity ([27]; compound 10.0 µM) was 89%. It also gave a residual activity ([28]; compound 1.0 µM) of 90%, a residual activity ([28]; compound 10.0 µM) of 107% and a residual activity ([29]; compound 1.0 µM) of 87%. The residual activity ([29]; compound 10.0 µM) was 96%, the residual activity ([30]; compound 1.0 µM) was 90% and the residual activity ([30]; compound 10.0 µM) was 95%. It also gave a residual activity ([31]; compound 1.0 µM) of 102%, a residual activity ([31]; compound 10.0 µM) of 106% and a residual activity ([32]; compound 1.0 µM) of 96%. The residual activity ([32]; compound 10.0 µM) was 93%, the residual activity ([33]; compound 1.0 µM) was 93% and the residual activity ([33]; compound 10.0 µM) was 94%. The residual activity ([34]; compound 1.0 µM) was 76% and the residual activity ([34]; compound 10.0 µM) was 88%.
